{
  "source": "patent US20170029355A1",
  "about": "“LABILE ESTERS OF AGROCHEMICALS FOR CONTROLLED RELEASE AND REDUCTION OF OFF-SITE MOVEMENT” (Monsanto Technology LLC, priority 2011, published 2017)",
  "key": {"broadleaf weeds": {"test_system": "broadleaf weeds", "experiment": "Control of broadleaf weeds by ester concentrates (statements of the description)", "assay_type": "in vivo", "details": "emulsifiable and suspension concentrates; Sesbania macrocarpa, morning glory, velvetleaf, Palmer amaranth, fat hen, sicklepod"}, "[1]": {"experiment": "In vitro dicamba photo-release from photo-labile dicamba esters, tetrahydrofuran solvent (Example 26)", "assay_type": "physicochemical", "details": "THF, 0.1 mM ester", "procedure,_shortened": "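Esters at 0.1 mM in THF, sealed in quartz tubes and exposed to simulated sunlight 14 h per day at 35 °C. Dicamba released was measured over the photolysis, with an unilluminated sample of the starting solution serving as dark control.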"}, "Palmer amaranth": {"test_system": "Palmer amaranth", "experiment": "Extended pre-emergent control of Palmer amaranth", "assay_type": "in vivo", "details": "emulsifiable concentrate, 21 and 44 days after treatment"}, "morning glory": {"test_system": "morning glory", "experiment": "Field testing of emulsifiable concentrates, post-emergent control (Example 38)", "assay_type": "in vivo", "text": "(§1) Four dicamba esters, 1a, 2, 9, and 13a, were formulated as emulsifiable concentrates for field testing. All formulations contained 5% each of a alkylbenzene sulfonate calcium salt (Huntsman NANSA EVM 62/H or Akzo Nobel WITCONATE P-1220 EH) and castor oil ethoxylate (Huntsman SURFONIC CO-54) as the emulsifiers and Aromatic 200 (Exxon) or monochlorobenzene (MCB) as the solvent.\n(§2) The esters were compared to the diglycolamine salt of dicamba (CLARITY™) for post-emergent control of three broadleaf weeds: velvetleaf, morning glory, and hemp sesbania. Rates of 280 and 420 g dicamba acid equivalent per hectare were used. […] Evaluations were conducted at 11 or 21 days after treatment. Locations and timing were identical for all formulations tested."}, "hemp sesbania": {"test_system": "hemp sesbania", "experiment": "Field testing of emulsifiable concentrates, post-emergent control (Example 38)", "assay_type": "in vivo", "text": "as §1, §2"}, "velvetleaf": {"test_system": "velvetleaf", "experiment": "Field testing of emulsifiable concentrates, post-emergent control (Example 38)", "assay_type": "in vivo", "text": "as §1, §2"}, "Euphorbia species": {"test_system": "Euphorbia species", "experiment": "Field testing for post-emergent activity in the Southern Hemisphere (Example 39)", "assay_type": "in vivo", "details": "9 as suspension concentrate, other esters as emulsifiable concentrates", "procedure,_shortened": "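Southern Hemisphere field trial, post-emergence application on Euphorbia weeds. Esters applied as emulsifiable concentrates in aromatic solvent with emulsifiers, one ester as a suspension concentrate. Dicamba diglycolamine salt served as comparator.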"}, "[2]": {"experiment": "In vitro photo-release and hydrolytic release of dicamba in an aqueous medium (Example 35)", "assay_type": "physicochemical", "details": "0.01 mM ester, 35° C.", "protocol": "This Example describes the determination of photo-lability and hydrolytic lability of dicamba esters in an aqueous medium. 1 mM solutions of the esters were prepared in acetonitrile (or […] solutions of dicamba diesters). The solutions were then diluted with deionized water to a concentration of 0.01 mM (or 0.005 mM for diesters). The solutions were then transferred to quartz tubes and amber bottles and held in a growth chamber by the procedure of Example 26. A 14-hour day was generally used at a constant temperature of 35° C. Hydrolytic activity was assessed by measuring the increase in dicamba concentration after day zero in the amber (dark) bottles. […] Photolysis manifested itself as increased conversion in the quartz tubes compared to the dark control."}, "[3]": {"test_system": "glyphosate-tolerant, dicamba-sensitive soy plants", "experiment": "Humidome volatility injury to dicamba-sensitive plants (Example 31)", "details": "assessed after three weeks in greenhouse", "text": "In this case, the diglycolamine salt of dicamba (CLARITY®) was used for comparison.\nDicamba photo-labile ester formulations from Example 28 were mixed with a commercial glyphosate formulation (ROUNDUP POWERMAX®) and diluted to provide a solution with a 0.5% dicamba equivalent concentrate of the ester (or dicamba diglycolamine salt) and 1.5% concentrate of glyphosate. The mixtures were sprayed at a 10 gallon per acre (93.5 liters per hectare) rate on soil in a plastic container (“humidome”) with a transparent lid. One soil container was sprayed with water as a control. Four glyphosate-tolerant, dicamba-sensitive soy plants between V2 and V3 stage were immediately placed on the sprayed soil and the domes attached to the trays with binder clips. The soy plants were in pots placed directly on the soil but with aluminum foil wrapped around the bottom to prevent uptake of dicamba or dicamba esters through the roots.\nThe closed containers were held for 24 hours in a growth chamber which was maintained at 35° C. with 40% relative humidity. The plants were then removed and grown in a greenhouse for three weeks. At this time plant injury and growth stage were assessed compared to the control treated with water only."}, "[4]": {"details": "280 and 420 g dicamba acid equivalent per hectare"}, "[5]": {"details": "280 g dicamba acid equivalent per hectare, 11 or 21 days after treatment"}, "[6]": {"details": "420 g dicamba acid equivalent per hectare, 11 or 21 days after treatment"}},
  "data": [
    {"smiles": "COc1c(Cl)ccc(Cl)c1C(=O)Oc1cnc2ccccc2n1", "note": "[Ester 13a, 2-quinoxalinol ester of dicamba]", "values": [
      {"measurement": "control of a number of broadleaf weeds in field testing, in words", "setting": "broadleaf weeds", "result": "proven effective"},
      {"measurement": "Dark Control % dicamba", "setting": "[1]; initial solution kept away from the light source, analyzed at conclusion of study", "result": 11, "unit": "%"},
      {"measurement": "Conversion to dicamba, 1 day", "setting": "[1]; simulated sunlight 14 hours per day, 35° C., 1 day", "result": 28, "unit": "%"},
      {"measurement": "Conversion to dicamba, 2 days", "setting": "[1]; simulated sunlight 14 hours per day, 35° C., 2 days", "result": 35, "unit": "%"},
      {"measurement": "Conversion to dicamba, 3 days", "setting": "[1]; simulated sunlight 14 hours per day, 35° C., 3 days", "result": 43, "unit": "%"},
      {"measurement": "Conversion to dicamba, 5 days", "setting": "[1]; simulated sunlight 14 hours per day, 35° C., 5 days", "result": 48, "unit": "%"},
      {"measurement": "Conversion to dicamba, 7 days", "setting": "[1]; simulated sunlight 14 hours per day, 35° C., 7 days", "result": 61, "unit": "%"},
      {"measurement": "Conversion to dicamba, 11 days", "setting": "[1]; simulated sunlight 14 hours per day, 35° C., 11 days", "result": 66, "unit": "%"},
      {"measurement": "Conversion to dicamba, 15 days", "setting": "[1]; simulated sunlight 14 hours per day, 35° C., 15 days", "result": 68, "unit": "%"},
      {"measurement": "extended pre-emergent control of Palmer amaranth compared with the diglycolamine salt of dicamba, in words", "setting": "Palmer amaranth", "result": "superior extended pre-emergent control"},
      {"measurement": "post-emergent control of morning glory compared with the dicamba salt, in words", "setting": "morning glory; [4]", "result": "equivalent to the dicamba salt"},
      {"measurement": "% control, 280 g/ha, Morning glory", "setting": "morning glory; [5]", "result": 100, "unit": "%"},
      {"measurement": "% control, 420 g/ha, Morning glory", "setting": "morning glory; [6]", "result": 100, "unit": "%"},
      {"measurement": "post-emergent control of hemp sesbania compared with the dicamba salt, in words", "setting": "hemp sesbania; [4]", "result": "equivalent to the dicamba salt"},
      {"measurement": "% control, 280 g/ha, Hemp sesbania", "setting": "hemp sesbania; [5]", "result": 95, "unit": "%"},
      {"measurement": "% control, 420 g/ha, Hemp sesbania", "setting": "hemp sesbania; [6]", "result": 98, "unit": "%"},
      {"measurement": "post-emergent control of velvetleaf compared with the dicamba salt, in words", "setting": "velvetleaf; [4]", "result": "nearly equivalent to the dicamba salt"},
      {"measurement": "% control, 280 g/ha, Velvetleaf", "setting": "velvetleaf; [5]", "result": 72, "unit": "%"},
      {"measurement": "% control, 420 g/ha, Velvetleaf", "setting": "velvetleaf; [6]", "result": 84, "unit": "%"},
      {"measurement": "% control, 0.25 lb/ac (0.28 kg/hectare)", "setting": "Euphorbia species; 0.25 lb dicamba a.e. per acre", "result": 46, "unit": "%"},
      {"measurement": "% control, 0.50 lb/ac (0.56 kg/hectare)", "setting": "Euphorbia species; 0.50 lb dicamba a.e. per acre", "result": 55, "unit": "%"},
      {"measurement": "Conversion to Dicamba, Dark, Day 0", "setting": "[2]; amber (dark) bottle, Day 0", "result": 8, "unit": "%"},
      {"measurement": "Conversion to Dicamba, Dark, Day 1", "setting": "[2]; amber (dark) bottle, Day 1", "result": 7, "unit": "%"},
      {"measurement": "Conversion to Dicamba, Dark, Day 2", "setting": "[2]; amber (dark) bottle, Day 2", "result": 7, "unit": "%"},
      {"measurement": "Conversion to Dicamba, Dark, Day 3", "setting": "[2]; amber (dark) bottle, Day 3", "result": 8, "unit": "%"},
      {"measurement": "Conversion to Dicamba, Dark, Day 4", "setting": "[2]; amber (dark) bottle, Day 4", "result": 8, "unit": "%"},
      {"measurement": "Conversion to Dicamba, Dark, Day 7", "setting": "[2]; amber (dark) bottle, Day 7", "result": 9, "unit": "%"},
      {"measurement": "Conversion to dicamba, Dark, Day 11", "setting": "[2]; amber (dark) bottle, Day 11", "result": 11, "unit": "%"},
      {"measurement": "Conversion to Dicamba, Dark, Day 14", "setting": "[2]; amber (dark) bottle, Day 14", "result": 12, "unit": "%"},
      {"measurement": "Conversion to Dicamba, Light, Day 0", "setting": "[2]; quartz tube, 14-hour day, Day 0", "result": 8, "unit": "%"},
      {"measurement": "Conversion to Dicamba, Light, Day 1", "setting": "[2]; quartz tube, 14-hour day, Day 1", "result": 9, "unit": "%"},
      {"measurement": "Conversion to Dicamba, Light, Day 2", "setting": "[2]; quartz tube, 14-hour day, Day 2", "result": 12, "unit": "%"},
      {"measurement": "Conversion to Dicamba, Light, Day 3", "setting": "[2]; quartz tube, 14-hour day, Day 3", "result": 13, "unit": "%"},
      {"measurement": "Conversion to Dicamba, Light, Day 4", "setting": "[2]; quartz tube, 14-hour day, Day 4", "result": 13, "unit": "%"},
      {"measurement": "Conversion to Dicamba, Light, Day 7", "setting": "[2]; quartz tube, 14-hour day, Day 7", "result": 15, "unit": "%"},
      {"measurement": "Conversion to dicamba, Light, Day 11", "setting": "[2]; quartz tube, 14-hour day, Day 11", "result": 19, "unit": "%"},
      {"measurement": "Conversion to Dicamba, Light, Day 14", "setting": "[2]; quartz tube, 14-hour day, Day 14", "result": 20, "unit": "%"},
      {"measurement": "% Injury", "setting": "[3]; soy plants 24 hours in closed humidome over sprayed soil (0.5% dicamba equivalent + 1.5% glyphosate), 35° C.", "result": 18, "unit": "%"},
      {"measurement": "Growth Stage", "setting": "[3]; soy plants 24 hours in closed humidome over sprayed soil", "result": 8}
    ]}
  ]
}
